# Key:
# [1] = Encapsulation efficiency EEsc / solid content, gravimetric after freeze-drying; assay type: physicochemical; conditions: fragrance encapsulated with Monomermischung S1
# From the text: Der Feststoffgehalt (SC) wurde […] Proben bestimmt. Vorher wurden zwei verschiedene theoretische Feststoffgehalte berechnet. SC1 ohne die Masse des Riechstoffs und SC2 […] Bestimmung des […] und […] bei der Messung des Feststoffgehalts SC2 mitbestimmt. Unter […] bei Polymerisation kann durch den Vergleich des praktisch gemessenen Feststoffgehalts SC mit den oben genannten theoretischen Werten die Menge an […]. Der Anteil an […] zur Einsatzmenge bei […].: Encapsulation Efficiency) EEsc in Prozent angegeben. Der theoretisch berechneten Feststoffgehalt SC1 betrugt 14,3%. Die Angabe […] 1 zeigt, dass der Riechstoff eingeschlossen wurde und […]. Die […]. Die in den Beispielen 1 und 2 verwendete Monomermischung S1 wurde für die Verkapselung weiterer Riechstoffe verwendet und die […] oben […]. Die […]
# [2] = Hansen-Parameter, δt^2 = δd^2 + δp^2 + δh^2
# From the text: Damit die hydrophobe Verbindung effektiv verkapselt werden kann, ist es erforderlich, dass die Verbindung ausreichend hydrophob ist, so dass sie nicht mit dem aus den Monomeren gebildeten Polymer derart interagiert, dass sie dieses übermäßig quellen und dadurch für die Verbindung stärker permeabel werden lässt. Es ist daher bevorzugt, dass die mindestens eine hydrophobe Verbindung einen Hansen-Parameter δt von weniger als 20, insbesondere weniger als 19 hat; und/oder einen Hansen-Parameter δh von weniger als 10, insbesondere weniger als 6 hat.
# Der Hansen-Parameter ist ein in der Polymerchemie weit verbreiteter Parameter zum Vergleich der Löslichkeit bzw. Mischbarkeit von verschiedenen Substanzen. Dieser Parameter wurde von Charles Hansen entwickelt, um die Löslichkeit eines Materials in einem anderen vorherzusagen. Dabei wird die Kohäsionsenergie einer Flüssigkeit betrachtet, welche in mindestens drei verschiedene Kräfte eingeteilt werden kann: (a) Dispersionskräfte zwischen den Molekülen δd, (b) Dipolare intermolekulare Kräfte zwischen den Molekülen δp und (c) Wasserstoffbrückenbindungen zwischen den Molekülen δh. Diese drei Parameter können zu einem Parameter δt zusammengefasst werden nach der Formel δt^2 = δd^2 + δp^2 + δh^2. Je ähnlicher der Hansen-Parameter von unterschiedlichen Materialien ist, desto besser sind diese ineinander mischbar.
# Tabelle 3 gibt die Hansen-Parameter für die getesteten Riechstoffe an. Tabelle 3: Hansen-Parameter
# [3] = Hansen-Parameter, cited from earlier work; for δp: dipolar forces; for δd: dispersion forces; for δh: hydrogen bonds
Molecule,Verkapselungseffizienz EEsc [1],δt [2],δp [3],δd [3],δh [3]
CC(C)=CCCC(C)CC=O (centres unmarked) [Citronellal],72%,"18,01","5,9","16,2","5,2"
CC(C)=CCCC(C)CCO (centres unmarked) [Citronellol],25%,"19,97","4,8","16,1","10,8"
C=CC(C)CCCC(C)(C)O (centres unmarked) [Dihydromyrcenol],4%,"19,72","4,3",16,"10,7"
CC(C)=CCC/C(C)=C/CO [Geraniol],0%,"20,25",–,–,–
CC/C=C\CC1=C(C)CCC1=O [Jasmone],–,"18,49","5,2",17,"5,1"
"CC(C=O)Cc1ccc(C(C)(C)C)cc1 (centres unmarked) [Lilial, 3-(4-tert-Butylphenyl)-2-methylpropanal]",77%,"18,10","2,3","17,3","4,8"
OCCc1ccccc1 [Phenylethylalkohol],–,"24,09","7,6","18,8",13
C/C=C\C(=O)C1C(C)=CCCC1(C)C (stereo not drawn) [α-Damascone],52%,"18,94","5,7","17,1","5,8"
CC1=CCC2CC1C2(C)C (stereo not drawn) [α-Pinen],91%,–,"4,3","15,6",0
C/C=C/C(=O)C1=C(C)CCCC1(C)C [β-Damascone],72%,"18,84","4,9","17,4","5,3"
Hexenol,0%,–,"6,7",16,"13,4"
Ionon,46%,"18,94","5,7","17,1","5,8"
